Patent publication US20240043427A1 (Gilead Sciences, Inc., priority 2020, published 2024)

biological target: T1, CD73 (Homo sapiens (Human), UniProt P21589); experiment: not given; format: biochemical; details: 1 mM NaH2PO4 in enzyme buffer, CD73 0.3 nM, AMP 15 uM
T1 sequence (P21589 27-574): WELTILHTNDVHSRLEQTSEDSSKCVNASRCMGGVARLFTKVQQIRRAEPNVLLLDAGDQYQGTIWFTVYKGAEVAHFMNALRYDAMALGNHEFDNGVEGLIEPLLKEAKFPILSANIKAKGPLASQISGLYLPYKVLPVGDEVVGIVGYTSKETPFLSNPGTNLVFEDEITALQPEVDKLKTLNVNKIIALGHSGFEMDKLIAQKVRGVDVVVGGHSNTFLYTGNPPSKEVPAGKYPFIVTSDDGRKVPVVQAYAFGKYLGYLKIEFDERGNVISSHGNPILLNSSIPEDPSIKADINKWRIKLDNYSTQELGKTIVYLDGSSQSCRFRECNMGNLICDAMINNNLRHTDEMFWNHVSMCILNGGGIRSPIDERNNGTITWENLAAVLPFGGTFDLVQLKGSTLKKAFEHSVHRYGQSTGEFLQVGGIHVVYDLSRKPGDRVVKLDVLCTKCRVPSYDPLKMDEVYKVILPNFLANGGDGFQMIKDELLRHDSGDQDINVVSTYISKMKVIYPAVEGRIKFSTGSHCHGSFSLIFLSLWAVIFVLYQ

Row | IC50 [nM] | SMILES
1 | 2.72 | O=c1[nH]cc(-c2cc([C@@H]3C[C@H]3c3cc(F)c(F)c(F)c3)c3nccn3n2)c(=O)[nH]1 (racemic) [Example 36]
2 | 0.56 | CC(C)n1ncc2ccc([C@H]3C[C@@H]3c3cc(-c4c[nH]c(=O)[nH]c4=O)nn4ccnc34)cc21 (racemic) [Example 119, 5-(8-((1S,2S)-2-(1-isopropyl-1H-indazol-6-yl)cyclopropyl)imidazo[1,2-b]pyridazin-6-yl)pyrimidine-2,4(1H,3H)-dione and 5-(8-((1R,2R)-2-(1-isopropyl-1H-indazol-6-yl)cyclopropyl)imidazo[1,2-b]pyridazin-6-yl)pyrimidine-2,4(1H,3H)-dione]
3 | 95.3 | O=c1[nH]cc(-c2cc(N3CCC(CC(F)(F)F)C3)c3nccn3n2)c(=O)[nH]1 (racemic) [Example 452, 5-(8-(3-(2,2,2-trifluoroethyl)pyrrolidin-1-yl)imidazo[1,2-b]pyridazin-6-yl)pyrimidine-2,4(1H,3H)-dione]
4 | 76 | O=c1[nH]cc(-c2cc(N3CCC(CC(F)F)C3)c3nccn3n2)c(=O)[nH]1 (racemic) [Example 453, 5-(8-(3-(2,2-difluoroethyl)pyrrolidin-1-yl)imidazo[1,2-b]pyridazin-6-yl)pyrimidine-2,4(1H,3H)-dione]
5 | 2.56 | O=c1[nH]cc(-c2cc([C@H]3C[C@@H]3c3nc4ccccc4[nH]3)c3nccn3n2)c(=O)[nH]1 (racemic) [Example 461, 5-(8-((1S,2S)-2-(1H-benzo[d]imidazol-2-yl)cyclopropyl)imidazo[1,2-b]pyridazin-6-yl)pyrimidine-2,4(1H,3H)-dione]
6 | 9.39 | O=C(Nc1ccccc1)[C@H]1C[C@@H]1c1cc(-c2c[nH]c(=O)[nH]c2=O)nn2ccnc12 (racemic) [Example 462, (1S,2S)-2-(6-(2,4-dioxo-1,2,3,4-tetrahydropyrimidin-5-yl)imidazo[1,2-b]pyridazin-8-yl)-N-phenylcyclopropane-1-carboxamide]
7 | 61.9 | CC(C)(O)[C@H]1C[C@@H]1c1cc(-c2c[nH]c(=O)[nH]c2=O)nn2ccnc12 (racemic) [Example 463, 5-(8-((1S,2S)-2-(2-hydroxypropan-2-yl)cyclopropyl)imidazo[1,2-b]pyridazin-6-yl)pyrimidine-2,4(1H,3H)-dione]
8 | 1.47 | O=c1[nH]cc(-c2cc([C@H]3C[C@@H]3c3ccc(F)c(F)c3F)c3nccn3n2)c(=O)[nH]1 (racemic) [Example 464, 5-(8-((1S,2S)-2-(2,3,4-trifluorophenyl)cyclopropyl)imidazo[1,2-b]pyridazin-6-yl)pyrimidine-2,4(1H,3H)-dione]
9 | 3.47 | N#Cc1ccc(F)c([C@H]2C[C@@H]2c2cc(-c3c[nH]c(=O)[nH]c3=O)nn3ccnc23)c1 (racemic) [Example 466, 3-((1S,2S)-2-(6-(2,4-dioxo-1,2,3,4-tetrahydropyrimidin-5-yl)imidazo[1,2-b]pyridazin-8-yl)cyclopropyl)-4-fluorobenzonitrile]
10 | 1.67 | O=c1[nH]cc(-c2cc([C@H]3C[C@@H]3c3c(F)ccc(F)c3F)c3nccn3n2)c(=O)[nH]1 (racemic) [Example 468, 5-(8-((1S,2S)-2-(2,3,6-trifluorophenyl)cyclopropyl)imidazo[1,2-b]pyridazin-6-yl)pyrimidine-2,4(1H,3H)-dione]
11 | 0.7 | O=c1[nH]cc(-c2cc([C@H]3C[C@@H]3c3cc4c(cn3)cnn4CC(F)(F)F)c3ncc(Cl)n3n2)c(=O)[nH]1 (racemic) [Example 471, 5-(3-chloro-8-((1S,2S)-2-(1-(2,2,2-trifluoroethyl)-1H-pyrazolo[4,3-c]pyridin-6-yl)cyclopropyl)imidazo[1,2-b]pyridazin-6-yl)pyrimidine-2,4(1H,3H)-dione]
12 | 3.07 | CC1(C)C(=O)N(CC(F)(F)F)c2cc([C@H]3C[C@@H]3c3cc(-c4c[nH]c(=O)[nH]c4=O)nn4ccnc34)ncc21 (racemic) [Example 718, 5-[8-[(1S,2S)-2-[3,3-dimethyl-2-oxo-1-(2,2,2-trifluoroethyl)pyrrolo[3,2-c]pyridin-6-yl]cyclopropyl]imidazo[1,2-b]pyridazin-6-yl]-1H-pyrimidine-2,4-dione]
13 | 2.66 | O=c1[nH]cc(-c2cc([C@H]3C[C@@H]3c3cc(OCC(F)(F)F)c4ncccc4c3)c3nccn3n2)c(=O)[nH]1 (racemic) [Example 732, 5-(8-((1S,2S)-2-(8-(2,2,2-trifluoroethoxy)quinolin-6-yl)cyclopropyl)imidazo[1,2-b]pyridazin-6-yl)pyrimidine-2,4(1H,3H)-dione]
14 | 2.94 | O=C1N(CC2(F)CC2)c2cc([C@H]3C[C@@H]3c3cc(-c4c[nH]c(=O)[nH]c4=O)nn4c(F)cnc34)ccc2C12CC2 (racemic) [Example 735, 5-(3-fluoro-8-((1S,2S)-2-(1′-((1-fluorocyclopropyl)methyl)-2′-oxospiro[cyclopropane-1,3′-indolin]-6′-yl)cyclopropyl)imidazo[1,2-b]pyridazin-6-yl)pyrimidine-2,4(1H,3H)-dione]
15 | 2.5 | O=C1N(CC(F)(F)F)c2cc([C@H]3C[C@@H]3c3cc(-c4c[nH]c(=O)[nH]c4=O)nn4ccnc34)c(F)cc2C12CC2 (racemic) [Example 748, 5-(8-((1S,2S)-2-(5′-fluoro-2′-oxo-1′-(2,2,2-trifluoroethyl)spiro[cyclopropane-1,3′-indolin]-6′-yl)cyclopropyl)imidazo[1,2-b]pyridazin-6-yl)pyrimidine-2,4(1H,3H)-dione]
16 | 1.01 | O=C1N(CC(F)(F)F)c2cc([C@H]3C[C@@H]3c3cc(-c4c[nH]c(=O)[nH]c4=O)nn4ccnc34)ccc2C12CC2 (single isomer, unassigned) [Example 391]
17 | 2.35 | O=C(c1ccc([C@H]2C[C@@H]2c2cc(-c3c[nH]c(=O)[nH]c3=O)nn3c(F)cnc23)cc1)N1CC(F)(F)C1 [Example 313, 5-(8-((1S,2S)-2-(4-(3,3-difluoroazetidine-1-carbonyl)phenyl)cyclopropyl)-3-fluoroimidazo[1,2-b]pyridazin-6-yl)pyrimidine-2,4(1H,3H)-dione]
18 | 4.95 | O=c1[nH]cc(-c2cc([C@H]3C[C@@H]3c3cnn(C(F)F)c3)c3ncc(F)n3n2)c(=O)[nH]1 [Example 371, 5-(8-((1S,2S)-2-(1-(difluoromethyl)-1H-pyrazol-4-yl)cyclopropyl)-3-fluoroimidazo[1,2-b]pyridazin-6-yl)pyrimidine-2,4(1H,3H)-dione]
19 | 2.56 | O=c1[nH]cc(-c2cc([C@H]3C[C@@H]3c3ccc(OC(F)(F)F)cn3)c3nccn3n2)c(=O)[nH]1 [Example 373, 5-(8-((1S,2S)-2-(5-(trifluoromethoxy)pyridin-2-yl)cyclopropyl)imidazo[1,2-b]pyridazin-6-yl)pyrimidine-2,4(1H,3H)-dione]
20 | 0.4 | O=c1[nH]cc(-c2cc([C@H]3C[C@@H]3c3cc4c(cn3)cnn4CC(F)(F)F)c3ncc(F)n3n2)c(=O)[nH]1 [Example 611, 5-(3-fluoro-8-((1S,2S)-2-(1-(2,2,2-trifluoroethyl)-1H-pyrazolo[4,3-c]pyridin-6-yl)cyclopropyl)imidazo[1,2-b]pyridazin-6-yl)pyrimidine-2,4(1H,3H)-dione]
21 | 0.58 | O=c1[nH]cc(-c2cc([C@H]3C[C@@H]3c3cc4c(cnn4CC(F)(F)F)cc3F)c3ncc(F)n3n2)c(=O)[nH]1 [Example 613, 5-(3-fluoro-8-((1S,2S)-2-(5-fluoro-1-(2,2,2-trifluoroethyl)-1H-indazol-6-yl)cyclopropyl)imidazo[1,2-b]pyridazin-6-yl)pyrimidine-2,4(1H,3H)-dione]
22 | 0.61 | O=C1N(CC(F)(F)F)c2cc([C@H]3C[C@@H]3c3cc(-c4c[nH]c(=O)[nH]c4=O)nn4c(Cl)cnc34)ccc2C12CC2 [Example 740, 5-(3-chloro-8-((1S,2S)-2-(2′-oxo-1′-(2,2,2-trifluoroethyl)spiro[cyclopropane-1,3′-indolin]-6′-yl)cyclopropyl)imidazo[1,2-b]pyridazin-6-yl)pyrimidine-2,4(1H,3H)-dione]
23 | 0.49 | O=C1N(CC(F)(F)F)c2cc([C@H]3C[C@@H]3c3cc(-c4c[nH]c(=O)[nH]c4=O)nn4c(Cl)c(Cl)nc34)ccc2C12CC2 [Example 741, 5-(2,3-dichloro-8-((1S,2S)-2-(2′-oxo-1′-(2,2,2-trifluoroethyl)spiro[cyclopropane-1,3′-indolin]-6′-yl)cyclopropyl)imidazo[1,2-b]pyridazin-6-yl)pyrimidine-2,4(1H,3H)-dione]

biological target: T1, CD73; experiment: MDA-MB-231 Cell Based CD73 Activity Assay (DMEM); details: MDA-MB-231-GFP cells, DMEM medium with 10% human plasma, 200 uM AMP
Experimental: MDA-MB-231 Cell Based CD73 Activity Assay (DMEM) MDA-MB-231-GFP cells were seeded in 384-well plates (Greiner 781946) at a density of 3000 cells per well in 50 μL of DMEM medium with 10% HP (human plasma). Cells were plated into assay plate with compounds pre-spotted, for an overnight compound treatment. 50 uL of 400 uM AMP (final concentration will be 200 uM) was added using Bio-tek dispenser. Plates were incubated for 100 mins. […] The samples were analyzed using Rapid fire.

Row | EC50 [nM] | SMILES
24 | 2.53 | O=c1[nH]cc(-c2cc([C@@H]3C[C@H]3c3cc(F)c(F)c(F)c3)c3nccn3n2)c(=O)[nH]1 (racemic) [Example 36]
25 | 1.09 | CC(C)n1ncc2ccc([C@H]3C[C@@H]3c3cc(-c4c[nH]c(=O)[nH]c4=O)nn4ccnc34)cc21 (racemic) [Example 119, 5-(8-((1S,2S)-2-(1-isopropyl-1H-indazol-6-yl)cyclopropyl)imidazo[1,2-b]pyridazin-6-yl)pyrimidine-2,4(1H,3H)-dione and 5-(8-((1R,2R)-2-(1-isopropyl-1H-indazol-6-yl)cyclopropyl)imidazo[1,2-b]pyridazin-6-yl)pyrimidine-2,4(1H,3H)-dione]
26 | 20.9 | O=c1[nH]cc(-c2cc(N3CCC4(C3)CC4(F)F)c3nccn3n2)c(=O)[nH]1 (stereo not drawn) [Example 192]
27 | 0.08 | O=c1[nH]cc(-c2cc([C@H]3C[C@@H]3c3ccc4cnn(CC(F)(F)F)c4c3F)c3ncc(F)n3n2)c(=O)[nH]1 [Example 630, 5-(3-fluoro-8-((1S,2S)-2-(7-fluoro-1-(2,2,2-trifluoroethyl)-1H-indazol-6-yl)cyclopropyl)imidazo[1,2-b]pyridazin-6-yl)pyrimidine-2,4(1H,3H)-dione]
28 | 124 | CC(C)(C)COc1cc(-c2c[nH]c(=O)[nH]c2=O)nn2ccnc12 [Example 679, 5-(8-(neopentyloxy)imidazo[1,2-b]pyridazin-6-yl)pyrimidine-2,4(1H,3H)-dione]
29 | 0.39 | CC(C)NC(=O)O[C@H]1CN(c2cc(-c3c[nH]c(=O)[nH]c3=O)nc3ccnn23)CC1(F)F [Example 713, (S)-1-(5-(2,4-dioxo-1,2,3,4-tetrahydropyrimidin-5-yl)pyrazolo[1,5-a]pyrimidin-7-yl)-4,4-difluoropyrrolidin-3-yl isopropylcarbamate]

Row | SMILES | EC50 [nM]
30 | O=c1[nH]cc(-c2cc(N3CC4CC(F)(C4)C3)c3nccn3n2)c(=O)[nH]1 [Example 579, 5-(8-(1-fluoro-3-azabicyclo[3.1.1]heptan-3-yl)imidazo[1,2-b]pyridazin-6-yl)pyrimidine-2,4(1H,3H)-dione] | 111
